{
  "source": "patent EP4782453A1",
  "about": "(Beyang Therapeutics Co., Ltd., priority 2023, dated 2025)",
  "data": [
    {"target": "T1, Menin-MLL (Homo sapiens, UniProt O00255)", "T1 construct": "His-Menin (M1-L615 end); purchased BIORTUS BP9210", "T1 sequence (O00255 1-615 isoform O00255-1)": "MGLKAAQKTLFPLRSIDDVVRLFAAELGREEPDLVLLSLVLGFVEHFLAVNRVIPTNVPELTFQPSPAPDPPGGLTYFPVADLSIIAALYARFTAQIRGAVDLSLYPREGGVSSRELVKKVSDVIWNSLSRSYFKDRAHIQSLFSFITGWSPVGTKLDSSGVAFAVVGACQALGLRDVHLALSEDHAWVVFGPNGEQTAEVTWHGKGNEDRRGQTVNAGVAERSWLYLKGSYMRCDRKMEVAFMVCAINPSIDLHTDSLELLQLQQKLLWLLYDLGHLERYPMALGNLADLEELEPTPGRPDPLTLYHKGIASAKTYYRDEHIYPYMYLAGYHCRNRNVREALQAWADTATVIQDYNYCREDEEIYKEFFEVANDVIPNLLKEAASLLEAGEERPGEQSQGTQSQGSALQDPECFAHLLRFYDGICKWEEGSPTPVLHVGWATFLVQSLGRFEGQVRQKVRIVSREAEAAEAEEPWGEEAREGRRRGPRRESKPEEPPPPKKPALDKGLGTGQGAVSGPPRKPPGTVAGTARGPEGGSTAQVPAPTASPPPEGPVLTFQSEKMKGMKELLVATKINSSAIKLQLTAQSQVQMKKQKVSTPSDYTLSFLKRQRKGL", "assay": "Inhibitory activity against Menin-MLL binding (fluorescence polarization)", "settings": "Menin-MLL IC50, fluorescence polarization; 150 nM His-Menin, 15 nM FITC-MLL; 25°C for 60 min", "how_it_was_run": "(§1)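 Fluorescence polarization competition: compound and 150 nM His-tagged menin (residues M1-L615) sit 15 min at 25 °C in pH 7.5 HEPES buffer with NaCl, DTT and BSA; 15 nM FITC-labelled MLL peptide then binds for 60 min. IC50 fitted sigmoidally from mP values, duplicate wells.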", "units": {"IC50": "nM"}, "values": [
      {"smiles": "CNC(=O)[C@H]1CC[C@H](CN2CC(c3cc(-c4ccc(F)cc4C(=O)N4CCOC[C@H]4C)c4c(F)nc(C)n4c3)C2)CC1", "note": "[Example 237, (1r,4r)-4-{[3-(1-fluoro-8-{4-fluoro-2-[(3R)-3-methylmorpholin-4-carbonyl]phenyl}-3-methylimidazo[1,5-a]pyridin-6-yl)azacyclobutan-1-yl]methyl}-N-methylcyclohexan-1-formamide]", "IC50": 34},
      {"smiles": "CCN(C(=O)c1cc(F)ccc1-c1cc(N2CCN(C(=O)C3NC4CCC3CC4)CC2)cn2c(C=O)ncc12)C(C)C", "note": "[Example 76, N-ethyl-5-fluoro-2-(3-formyl-6-{4-[(1R,3S,4S)-2-azabicyclo[2.2.2]octan-3-carbonyl]piperazin-1-yl}imidazo[1,5-a]pyridin-8-yl)-N-(isopropyl)benzamide]", "IC50": 40},
      {"smiles": "CCN(C(=O)c1cc(F)ccc1-c1cc(C2CCN(C[C@H]3CC[C@H](NS(=O)(=O)CC)CC3)C2)nc2c1cnn2C)C(C)C", "note": "(mixture of isomers) [Example 11, N-ethyl-5-fluoro-2-[1-methyl-6-(1-{[(1r,4r)-4-ethanesulfonamidocyclohexyl]methyl}pyrrolidin-3-yl)-1H-pyrazolo[3,4-b]pyridin-4-yl]-N-(isopropyl)benzamide]", "IC50": 155},
      {"smiles": "COCCN(C(=O)c1cc(F)ccc1-c1cc(C2CN([C@@H](CCCN3C[C@H]4C[C@@H]3CO4)C(C)C)C2)cn2c(C)ncc12)C(C)C", "note": "[Example 467-2, 5-fluoro-N-(2-methoxyethyl)-2-(3-methyl-6-{1-[(3S)-2-methyl-6-[(1R,4R)-2-oxa-5-azadicyclo[2.2.1]heptan-5-yl]hexan-3-yl]azacyclobutan-3-yl}imidazo[1,5-a]pyridin-8-yl)-N-(isopropyl)benzamide]", "IC50": 54},
      {"smiles": "CCN(C(=O)c1cc(F)ccc1-c1cc(C2CN(C(=O)[C@@H](NC)C3CCCC3)C2)cn2c(C)nc(F)c12)C(C)C", "note": "[Example 317]", "IC50": 92},
      {"smiles": "CCS(=O)(=O)N[C@H]1CC[C@H](CC(C)N2CC(c3cc(-c4ccc(F)cc4C(=O)N4CCOC[C@H]4C)c4cnn(C)c4c3)C2)CC1", "note": "(stereo partly drawn) [Example 175, N-[(1r,4r)-4-{2-[3-(4-{4-fluoro-2-[(3R)-3-methylmorpholin-4-carbonyl]phenyl}-1-methyl-1H-indazol-6-yl)azacyclobutan-1-yl]propyl}cyclohexyl]ethan-1-sulfonamide]", "IC50": 138},
      {"smiles": "CCN(C(=O)c1cc(F)ccc1-c1cc(N2CC3(CN(C[C@H]4CC[C@H](NS(=O)(=O)CC)CC4)C3)C2)cn2c(C)ncc12)C(C)C", "note": "[Example 89, N-ethyl-5-fluoro-2-[3-methyl-6-(6-{[(1r,4r)-4-ethanesulfonamidocyclohexyl]methyl}-2,6-diazaspirocyclo[3.3]heptan-2-yl)imidazo[1,5-a]pyridin-8-yl]-N-(isopropyl)benzamide]", "IC50": 173}
    ]},
    {"target": "T1, Menin-MLL", "assay": "Inhibitory activity against Menin-MLL binding (fluorescence polarization)", "settings": "fluorescence polarization; 150 nM His-Menin, 15 nM FITC-MLL; 25°C for 60 min; read-out: Menin-MLL IC50", "how_it_was_run": "as §1", "units": {"IC50": "nM"}, "values": [
      {"smiles": "C=C1CN[C@H](C(=O)N2CCC(c3cc(-c4ccc(F)cc4C(=O)N(CC(F)F)C(C)C)c4cnc(C)n4c3)CC2)C1", "note": "[Example 144]", "IC50": 51},
      {"smiles": "CCN(C(=O)c1cc(F)ccc1-c1cc(C2CN([C@H](CCCN3CCN(C(=O)OC(C)(C)C)CC3)C(C)C)C2)cn2c(C)ncc12)C(C)C", "note": "[Example 454-1, 4-[(4R)-4-[3-(8-{2-[ethyl(isopropyl)aminoformyl]-4-fluorophenyl}-3-methylimidazo[1,5-a]pyridin-6-yl)azacyclobutan-1-yl]-5-methylhexyl]piperazin-1-tert-butyl carboxylate]", "IC50": 7.7},
      {"smiles": "CC[C@H](C1CCN(C(C)=O)CC1)N1CC(c2cc(-c3ccc(F)cc3C(=O)N3CCOC[C@H]3C)c3c(F)nc(C)n3c2)C1", "note": "[Example 280-2, 1-{4-[(1R)-1-[3-(1-fluoro-8-{4-fluoro-2-[(3R)-3-methylmorpholin-4-carbonyl]phenyl}-3-methylimidazo[1,5-a]pyridin-6-yl)azacyclobutan-1-yl]propyl]piperidin-1-yl}ethan-1-one]", "IC50": 160},
      {"smiles": "CCN(C(=O)c1cc(F)ccc1-c1cc(C2CN([C@H](CCCN3CCNC(=O)C3)C(C)C)C2)cn2c(C)ncc12)C(C)C", "note": "[Example 494]", "IC50": 4.1},
      {"smiles": "CC(=O)N1C[C@H]2C[C@@H]1CN2CCC[C@H](C(C)C)N1CC(c2cc(-c3ccc(F)cc3C(=O)N3CCOC[C@H]3C)c3c(F)nc(C)n3c2)C1", "note": "[Example 332, 1-[(1R,4R)-5-[(4R)-4-[3-(1-fluoro-8-{4-fluoro-2-[(3R)-3-methylmorpholin-4-carbonyl]phenyl}-3-methylimidazo[1,5-a]pyridin-6-yl)azacyclobutan-1-yl]-5-methylhexyl]-2,5-diazabicyclo[2.2.1]heptan-2-yl]ethan-1-one]", "IC50": 9.3},
      {"smiles": "CCN(C(=O)c1cc(F)ccc1-c1cc(C2CCN(CC3(O)CCC(NC(=O)OC(C)(C)C)CC3)C2)cn2c(C)ncc12)C(C)C", "note": "(centres unmarked) [Compound 50, N-(4-{[3-(8-{2-[ethyl(isopropyl)aminoformyl]-4-fluorophenyl}-3-methylimidazo[1,5-a]pyridin-6-yl)pyrrolidin-1-yl]methyl}-4-hydroxylcyclohexyl)tert-butyl carbamate]", "IC50": 14},
      {"smiles": "CCN(C(=O)c1cc(F)ccc1-c1cc(C2CN([C@H](CCCN3CC4CC(C3)N4C)C(C)C)C2)cn2c(C)ncc12)C(C)C", "note": "[Example 392]", "IC50": 2},
      {"smiles": "C[C@@H]1COCCN1C(=O)c1cc(F)ccc1-c1cc(C2CN(CC3CCN(C(=O)CC#N)CC3)C2)cc2c1cnn2C", "note": "[Example 173]", "IC50": 118},
      {"smiles": "COC1CCN(CCC[C@@H](C(C)C)N2CC(c3cc(-c4ccc(F)cc4C(=O)N4CCOC[C@H]4C)c4cnn(C)c4c3)C2)CC1", "note": "[Example 181-1, 4-{4-fluoro-2-[(3R)-3-methylmorpholin-4-carbonyl]phenyl}-6-{1-[(3S)-6-(4-methoxypiperidin-1-yl)-2-methylhexan-3-yl]azacyclobutan-3-yl}-1-methyl-1H-indazole]", "IC50": 621},
      {"smiles": "CCN(C(=O)c1cc(F)ccc1-c1cc(C2CN([C@H](C)C3CCN(C(=O)NC)CC3)C2)cn2c(C)nc(F)c12)C(C)C", "note": "[Example 283-1]", "IC50": 20},
      {"smiles": "CCN(C(=O)c1cc(F)ccc1-c1cc(C2CN([C@@H](CCCN3CCC(OCCO)CC3)C(C)C)C2)cc2c1cnn2C)C(C)C", "note": "[Example 401-1]", "IC50": 130},
      {"smiles": "CCN(C(=O)c1cc(F)ccc1-c1cc(C2CN([C@@H](CCCN(C)CCOC)C(C)C)C2)cn2c(C)nc(F)c12)C(C)C", "note": "[Example 307-1, N-ethyl-5-fluoro-2-(1-fluoro-6-{1-[(3S)-6-[(2-methoxyethyl)(methyl)amino]-2-methylhexan-3-yl]azacyclobutan-3-yl}-3-methylimidazo[1,5-a]pyridin-8-yl)-N-(isopropyl)benzamide]", "IC50": 14.5},
      {"smiles": "CCN(C(=O)c1cc(F)ccc1-c1cc(C2CCN(CC3CCC(NC(=O)OC(C)(C)C)CC3)C2)cc2cncn12)C(C)C", "note": "(centres unmarked) [Example 24, N-(4-{[3-(5-{2-[ethyl(isopropyl)aminoformyl]-4-fluorophenyl}imidazo[1,5-a]pyridin-7-yl)pyrrolidin-1-yl]methyl}cyclohexyl)tert-butyl carbamate]", "IC50": 23},
      {"smiles": "Cc1nc(F)c2c(-c3ccc(F)cc3C(=O)N3CCOC[C@H]3C)cc(C3CN(C[C@H]4CC[C@@H](c5ncno5)CC4)C3)cn12", "note": "[Example 207-2, (3R)-4-{5-fluoro-2-[1-fluoro-3-methyl-6-(1-{[(1s,4s)-4-(1,2,4-oxadiazol-5-yl)cyclohexyl]methyl}azacyclobutan-3-yl)imidazo[1,5-a]pyridin-8yl]benzoyl}-3-methylmorpholine]", "IC50": 269},
      {"smiles": "Cc1nc(F)c2c(-c3ccc(F)cc3C(=O)N3CCOC[C@H]3C)cc(C3CN(CC4CCN(C(=O)C5(C#N)CC5)CC4)C3)cn12", "note": "[Example 254]", "IC50": 48},
      {"smiles": "CCN(C(=O)c1cc(F)ccc1-c1cc(C2CN([C@@H](CCCN3CCN(C(C)=O)CC3)C(C)C)C2)cn2c(C)ncc12)C(C)C", "note": "[Example 311-1, 2-(6-{1-[(3S)-6-(4-acetylpiperazin-1-yl)-2-methylhexan-3-yl]azacyclobutan-3-yl}-3-methylimidazo[1,5-a]pyridin-8-yl)-N-ethyl-5-fluoro-N-(isopropyl)benzamide]", "IC50": 42},
      {"smiles": "CCN(C(=O)c1cc(F)ccc1-c1cc(C2CN([C@H](CCCN3CCOCC3)C(C)C)C2)cn2c(C)ncc12)C(C)C", "note": "[Example 375, N-ethyl-5-fluoro-2-(3-methyl-6-{1-[(3R)-2-methyl-6-(morpholin-4-yl)hexan-3-yl]azacyclobutan-3-yl}imidazo[1,5-a]pyridin-8-yl)-N-(isopropyl)benzamide]", "IC50": 3.9},
      {"smiles": "CCN(C(=O)c1cc(F)ccc1-c1cc(C2CCN(C[C@H]3CC[C@H](N4CCOC4=O)CC3)C2)cn2cncc12)C(C)C", "note": "(some centres unmarked) [Example 47]", "IC50": 25},
      {"smiles": "Cc1ncc2c(-c3ccc(F)cc3C(=O)N(CC(F)F)C(C)C)cc(C3CN([C@@H](CCCN4CCN(CCO)CC4)C(C)C)C3)cn12", "note": "[Example 459-2, N-(2,2-difluoroethyl)-5-fluoro-2-(6-{1-[(3S)-6-[4-(2-hydroxylethyl)piperazin-1-yl]-2-methylhexan-3-yl]azacyclobutan-3-yl}-3-methyl-imidazo[1,5-a]pyridin-8-yl)-N-(isopropyl)benzamide]", "IC50": 40}
    ]}
  ]
}
